According to patent US12180169B1, “4-[4,4-bis(4-bromophenyl)-5-oxo-2-thioxoimidazolidin-1-yl]butanoic acid as an antimicrobial compound” (KING FAISAL UNIVERSITY, priority 2023, dated 2024):

Experiments:
Assay type in all cases: cell-based
Conditions in all cases: after 10, 20, 40 and 60 min at all dilutions 1:100, 1:200, 1:400, 1:800
Staphylococcus aereus = experiment: Antimicrobial testing by agar dilution, Staphylococcus aereus
Procedure: (§1) The antimicrobial properties of the 4-[4,4-bis(4-bromophenyl)-2,5-dioxoimidazolidin-1-yl]butanoic acid were studied by the method of agar dilution. Test solutions of each compound was prepared in concentration of 1% using dimethylformamide as a solvent then they are diluted in physiological solution to obtain the final experimental dilutions 1:100, 1:200, 1:400, 1:800. The effect of these substances are compared with furacillin in a controlable study. The testing microbes used were gram positive bacteria Staphylococcus aereus, gram negative bacteria Escherichia coli, Pseudomonas aeruginosa and Candida albicans fungi were taken. The experiments used for this survey were meat-pentonlu agar (EPA) for cultivation of bacteria and Saburo environment for fungi. Each experiment used 1 ml of test solution on each plate 500 min. Add 2 drops of emulsified with microbes feel. All experimental samples were taken from the agar after 10, 20, 40, 60 minutes in the environment on the basis of Patrk planted. Bacteria were cultivated at a temperature of 37° C. for 1 day and the mushroom was kept in a thermostat for […] at a temperature of 28° C. in the. Then results were checked.

Escherichia coli = experiment: Antimicrobial testing by agar dilution, Escherichia coli
Procedure: as §1

Pseudomonas aeruginosa = experiment: Antimicrobial testing by agar dilution, Pseudomonas aeruginosa
Procedure: as §1

Candida albicans = experiment: Antimicrobial testing by agar dilution, Candida albicans fungi
Procedure: as §1

Measured: inhibition activity (summary in words)

O=C(O)CCCN1C(=O)C(c2ccc(Br)cc2)(c2ccc(Br)cc2)NC1=S [4-[4,4-bis(4-bromophenyl)-5-oxo-2-thioxoimidazolidin-1-yl]butanoic acid]
higher inhibition activity: all assays above
